Consider 27 compounds from patent US7223759B2, “Antibacterial 3,5-diaminopiperidine-substituted aromatic and heteroaromatic compounds” (Anadys Pharmaceuticals, Inc., priority 2003, dated 2007).

The MIC is the lowest concentration that inhibits growth of the organism.

Each structure is given as a SMILES string.

One experiment concerns Escherichia coli (ATCC25922) or Staphylococcus aureus (ATCC25923). Description: Antibacterial MIC, microdilution method in Mueller-Hinton medium. It is filed as cell-based. The following applies: Escherichia coli, 18 h, MIC in E. coli or S. aureus; two-fold serial dilutions 64 to 0.5 μg/ml in duplicate; 18 hours of incubation at 35° C.; read-out: Potency (MIC). The gist of the method: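 Read after 18 h incubation at 35° C, MIC is the lowest compound level that blocked growth. Compounds were tested in duplicate over 64–0.5 μg/ml two-fold dilutions using Mueller-Hinton microdilution per NCCLS standard.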
On the technique in general: Broth dilution looks for growth in wells or tubes with falling amounts of substance.
For `Cl.NCCN(CCN)c1nc(Nc2ccc(C(=O)Oc3ccccc3)c([N+](=O)[O-])c2)nc(N2CCCCC2)n1` [4-[4-[Bis-(2-amino-ethyl)-amino]-6-((3R,5S)-3,5-diamino-piperidin-1-yl)-[1,3,5]triazin-2-ylamino]-2-hydroxy-benzoic acidphenyl ester], the minimal inhibitory concentration (MIC) was less than 64 µg/mL.
On the same count and under the same terms, under `O=S(=O)(Nc1ccc2cn[nH]c2c1)c1ccc(Nc2nc(N3CCCCC3)nc(N3CCN(c4ccncc4)CC3)n2)cc1` [4-[4-((3S,5R)-3,5-DSiamino-piperidin-1-yl)-6-(4-pyridin-4-yl-piperazin-1-yl)-[1,3,5]triazin-2-ylamino]-N-(1H-indazol-6-yl)-benzenesulfonamide] stands less than 64 µg/mL; under `Cl.NC1C[C@@H](N)CN(c2nc(Nc3ccc(NC(=O)c4cc(Cl)ccc4O)cc3)nc(N3C[C@H](N)C[C@H](N)C3)n2)C1` (stereo in doubt) [N-[4-(5-chloro-2-hydroxy-benzoylamino)-phenyl]-4,6-Bis-((3R,5S)-3,5-diamino-piperidin-1-yl)-[1,3,5]triazine-2-amine], less than 16 µg/mL.
For `N[C@@H]1C[C@H](N)CN(c2nc(Nc3ccc(O)cc3)nc(N3C[C@H](N)C[C@H](N)C3)n2)C1` [N-(4-hydroxy-phenyl)-4,6-Bis-((3R,5S)-3,5-diamino-piperidin-1-yl)-[1,3,5]triazine-2-amine], the MIC was greater than 64 µg/mL.
Same read-out and setting: to `Cl.O=C(CC(=O)c1ccc(Nc2nc(N3CCCCC3)nc(N3CCCCC3)n2)cc1)Nc1ccc(-c2ccccc2)cc1` [N-{4-[2-(biphenyl-44-ylcarbamoyl)-acetyl]-phenyl}-44,6-Bis-((3R,5S)-3,5-diamino-piperidin-1-yl)-[1,3,5]triazine-2-amine] belongs less than 16 µg/mL; to `Cl.N[C@@H]1CC(c2nc(Nc3ccc(C(=O)CC(=O)Nc4ccccc4N4CCOCC4)cc3)nc(N3C[C@H](N)C[C@H](N)C3)n2)C[C@H](N)C1` (stereo partly drawn) [N-{4-[2-(2-morpholin-4-yl-phenylcarbamoyl)-acetyl]-phenytl}-4,6-Bis-((3R,5S)-3,5-diamino-piperidin-1-yl)-[1,3,5]triazine-2-ammine], less than 16 µg/mL.
Same read-out and setting: under `N[C@@H]1CC(c2nc(NC3CCNCC3)nc(N3C[C@H](N)C[C@H](N)C3)n2)C[C@H](N)C1` (stereo partly drawn) [N-piperidin-4-yl-4,6-Biss-((3R,5S)-3,5-diamino-piperidin-1-yl)-[1,3,5]triazine-2-amine] stands greater than 64 µg/mL.
Still for that read-out and setting: to `Cl.Nc1ccc(Nc2nc(N3C[C@H](N)C[C@H](N)C3)nc(N3C[C@H](N)C[C@H](N)C3)n2)cc1` [N-(4-amino-phenyl)-4,6-Biss-((3R,5S)-3,5-diamino-piperidin-1-yl)-[1,3,5]triazine-2-amine] belongs greater than 64 µg/mL.
As to `N[C@@H]1C[C@H](N)CN(c2nc(Nc3ccc(S(=O)(=O)Nc4ccc5cn[nH]c5c4)cc3)nc(NC3CCCNC3)n2)C1` (stereo partly drawn) [4-[4-((3S,5R)-3,5-Diamino-piperidin-1-yl)-6-(piperidin-3-ylamino)-[1,3,5]triazin-2-ylamino]-N-(1H-indazol-6-yl)-benzenesulfonamide], the MIC is greater than 64 µg/mL.
Turning to `Cl.O=C(Nc1ccc(Nc2cc(N3CCCCC3)cc(N3CCCCC3)c2)cc1)c1ccc2ccccc2c1O` [1-Hydroxy-naphthalene-2-cxarboxylicacid {4-[3-((3R,5S)-3,5-diamino-piperidin-1-yl)-5-((3S,5R)-3,5-diamino-piperidin-1-yl)-phenylamino]-phenyl}-amide], the minimum inhibitory concentration (MIC) was less than 16 µg/mL.
As for `Cl.c1ccc(Nc2ccccc2Nc2nc(C3CCCCC3)nc(N3CCCCC3)n2)cc1` [N-(2-pohenylamino-phenyl)-4,6-Bis-((3R,5S)-3,5-diamino-piperidin-1-yl)-[1,3,5]triazine-2-amine], the MIC is greater than 64 µg/mL.
As to `CC(C)CC(=O)Nc1ccc(Nc2nc(N3CCCCC3)nc(N3CCCCC3)n2)cc1O.Cl` [N-[3-hydroxy-4-(3-methyl-butyrylamino)-phenylk]-4,6-Bis-((3R,5S)-3,5-diamino-piperidin-1-yl)-[1,3,5]triazine-2-amine], the MIC is less than 64 µg/mL.
On the same count and under the same terms, under `Cl.N[C@@H]1C[C@H](N)CN(c2nc(Nc3ccc(Cl)c(Cl)c3)nc(N3C[C@H](N)C[C@H](N)C3)n2)C1` [N-(3,4-dichloro-phenyl)-4,6-Bis-((3R,5S)-3,5-diamino-piperidin-1-yl)-[1,3,5]triazine-2-amine] stands less than 64 µg/mL.

Staying with this experiment, now noted: Escherichia coli, 18 h, read-out: Potency (MIC).
With `CCCCCCOc1ccc(Nc2nc(N3C[C@H](N)C[C@H](N)C3)nc(N3C[C@H](N)C[C@H](N)C3)n2)cc1` [N-(4-hexyloxy-phenyl)-4,6-Bis-((3R,5S)-3,5-diamino-piperidin-1-yl)-[1,3,5]triazine-2-amine], the minimum inhibitory concentration (MIC) was less than 16 µg/mL.
`CCCCCCCCCC(=O)Nc1ccc(S(=O)(=O)Nc2ccc(Nc3nc(N4C[C@H](N)C[C@H](N)C4)nc(N4C[C@H](N)C[C@H](N)C4)n3)cc2O)cc1` [N-[4-(4-decanoylamino-benzenesulfonylamino)-3-hydroxy-phenyl]-4,6-Bis-((3R,5S)-3,5-diamino-piperidin-1-yl)-[1,3,5]triazine-2-amine]: the MIC is less than 16 µg/mL.
Still for that read-out and setting: under `N[C@@H]1C[C@H](N)CN(c2nc(Nc3ccc(C(=O)CC(=O)Nc4ccc(Cl)cc4Cl)cc3)nc(N3C[C@H](N)C[C@H](N)C3)n2)C1` [N-{4-[2-(2,4-dichloro-phenylcarbamoyl)-acetyl]-phenyl}-4,6-Bis-((3R,5S)-3,5-diamino-piperidin-1-yl)-[1,3,5]triazine-2-amine] stands less than 64 µg/mL; under `N[C@@H]1C[C@H](N)CN(c2nc(Nc3ccc(NC(=O)c4cccc([N+](=O)[O-])c4O)cc3O)nc(N3C[C@H](N)C[C@H](N)C3)n2)C1` [N-[2-hydroxy-4-(2-hydroxy-3-nitro-benzoylamino)-phenyl]-4,6-Bis-((3R,5S)-3,5-diamino-piperidin-1-yl)-[1,3,5]triazine-2-amine], less than 64 µg/mL.
Still for that read-out and setting: under `Cc1ccc(NNc2nc(N3C[C@H](N)C[C@H](N)C3)nc(N3C[C@H](N)C[C@H](N)C3)n2)cc1` [N-(4,6-Bis-((3R,5S)-3,5-diamino-piperidin-1-yl)-[1,3,5]triazin-2-yl)-N′-p-Tolyl-hydrazine] stands less than 64 µg/mL; under `NC[C@@H]1C[C@H](CN)CN(c2nc(Nc3ccc(C(=O)CC(=O)Nc4ccccc4Cl)cc3)nc(N3C[C@H](N)C[C@H](N)C3)n2)C1` [3-{4-[4-((3R,5S)-3,5-Bis-(aminomethyl)-piperidin-1-yl)-6-((3R,5S)-3,5-diamino-piperidin-1-yl)-[1,3,5]triazin-2-ylamino]-phenyl}-N-(2-chloro-phenyl)-3-oxo-propionamide], less than 64 µg/mL.
Same read-out and setting: to `N[C@@H]1C[C@H](N)CN(c2nc(Nc3ccc(C(=O)CC(=O)Nc4ccccc4Cl)cc3)nc(N3C[C@@H](N)C[C@H]3CO)n2)C1` [3-{4-[4-((2S,4S)-4-Amino-2-hydroxymethyl-pyrrolidin-1-yl)-6-((3R,5S)-3,5-diamino-piperidin-1-yl)-[1,3,5]triazin-2-ylamino]-phenyl}-N-(2-chloro-phenyl)-3-oxo-propionamide] belongs less than 64 µg/mL.
In the case of `Cc1cc(Br)ccc1Nc1nc(N2C[C@H](N)C[C@H](N)C2)nc(N2C[C@H](N)C[C@H](N)C2)n1` [N-(4-bromo-2-methyl-phenyl)-4,6-Bis-((3R,5S)-3,5-diamino-piperidin-1-yl)-[1,3,5]triazine-2-amine], the MIC was greater than 64 µg/mL.
Consider `Cc1ccc(S(=O)(=O)N(Cc2ccccc2)c2ccc(Nc3nc(N4C[C@H](N)C[C@H](N)C4)nc(N4CC[C@H](O)[C@H](CN)C4)n3)c(O)c2)cc1` [N-{4-[4-((3R,4S)-3-Aminomethyl-4-hydroxy-piperidin-1-yl)-6-((3R,5S)-3,5-diamino-piperidin-1-yl)-[1,3,5]triazin-2-ylamino]-3-hydroxy-phenyl}-N-benzyl-4-methyl-benzenesulfonamide], for which the MIC is less than 64 µg/mL.
Take `NC[C@@H]1C[C@H](CN)CN(c2nc(Nc3ccc4c(c3)-c3ccccc3C4=O)nc(N3C[C@H](N)C[C@H](N)C3)n2)C1` [3-[4-((3R,5S)-3,5-Bis-(aminomethyl)-piperidin-1-yl)-6-((3R,5S)-3,5-diamino-piperidin-1-yl)-[1,3,5]triazin-2-ylamino]-fluoren-9-one]: the MIC was less than 64 µg/mL.
The same measure, in the same setting: to `N[C@@H]1C[C@H](N)CN(c2nc(Nc3ccc(C(=O)CC(=O)Nc4ccc(SC(F)(F)F)cc4)cc3)nc(N3C[C@H](N)C[C@H](N)C3)n2)C1` [N-{4-[2-(4-trifluoromethylsulfanyl-phenylcarbamoyl)-acetyl]-phenyl}-4,6-Bis-((3R,5S)-3,5-diamino-piperidin-1-yl)-[1,3,5]triazine-2-amine] belongs less than 16 µg/mL; to `NC[C@@H]1C[C@H](N)CN1c1nc(Nc2ccc(C(=O)CC(=O)Nc3ccccc3Cl)cc2)nc(N2C[C@H](N)C[C@H](N)C2)n1` [3-{4-[4-((2S,4S)-4-Amino-2-aminomethyl-pyrrolidin-1-yl)-6-((3R,5S)-3,5-diamino-piperidin-1-yl)-[1,3,5]triazine-2-ylamino]-phenyl}-N-(2-chloro-phenyl)-3-oxo-propionamide], less than 64 µg/mL.
Same read-out and setting: to `N[C@@H]1C[C@H](N)CN(c2nc(Nc3ccc(NC(=O)c4ccc5ccccc5c4O)cc3)nc(N3CCC[C@@H](O)C3)n2)C1` [1-Hydroxy-naphthalene-2-carboxylicacid {4-[4-((3S,5R)-3,5-diamino-piperidin-1-yl)-6-((R)-3-hydroxy-piperidin-1-yl)-[1,3,5]triazin-2-ylamino]-phenyl}-amide] belongs less than 64 µg/mL; to `N[C@@H]1C[C@H](N)CN(c2nc(Nc3ccc(C(=O)CC(=O)Nc4cccc(CO)c4)cc3)nc(N3C[C@H](N)C[C@H](N)C3)n2)C1` [N-{4-[2-(3-hydroxymethyl-phenylcarbamoyl)-acetyl]-phenyl}-4,6-Bis-((3R,5S)-3,5-diamino-piperidin-1-yl)-[1,3,5]triazine-2-amine], greater than 64 µg/mL.
